Records with an inconclusive call do not appear. Active and inactive are the calls of the source. The rule behind the calls is not given here.

Results on 85 compounds are retold here after PubChem BioAssay AID2202554 (NIEHS Division of Translational Toxicology (DTT)).

In the series the test system is S. typhimurium/E. coli reverse mutation, colony counts. In words: Bacterial reverse mutation test (aka Ames test) summary data. A digest of the protocol: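 S. typhimurium his⁻ strains (TA97–TA1538) and E. coli WP2 uvrA pKM101 trp⁻, dosed over a range with or without rat, hamster or mouse liver S9. Preincubated 20 min at 37° C (or plate incorporation), plated in agar, incubated usually two days. Revertant colonies counted against negative controls.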

As for `O=C(O)C(Cl)Cl`, the outcome was “active; positive”. Under `CNNC` stands “inactive; negative”; under `O=C(Cl)c1ccc([N+](=O)[O-])cc1`, “active; positive”; under `COP(=O)(OC)OC`, “active; positive”. As to `O=[N+]([O-])c1cccc2ccccc12`, the outcome was “active; positive”. On to `CCc1ccc(N)cc1`, for which the outcome was “inactive; negative”.

For the compound `CCCCC(CC)COCCC#N` (stereo not given), the outcome is “inactive; negative”. Regarding `OCCCCO`, the outcome was “inactive; negative”. Consider `CC(C)(C)OCC1CO1` (stereo not given), for which the outcome was “active; positive”.

For `Cc1ccc(Nc2ccc(Nc3ccc(C)cc3S(=O)(=O)O)c3c2C(=O)c2ccccc2C3=O)c(S(=O)(=O)O)c1`, the outcome is “active; weakly positive”. As for `FCC1CO1` (stereo not given), the outcome was “active; positive”. Under `CC(=O)Nc1cccc(N)c1` stands “active; positive”; under `NCCCNCCCN`, “inactive; negative”; under `NCCNCCN`, “inactive; negative”.

In the case of `ClC(Br)Br`, the outcome was “active; weakly positive”. In the case of `Nc1cc([N+](=O)[O-])cc(Cl)c1O` it was “active; positive”; in that of `O=C(O)c1cc(N=Nc2ccc([N+](=O)[O-])cc2)ccc1O`, “active; positive”.

As for `CCCCCCC(=O)O`, the outcome is “inactive; negative”. With `NCCS(=O)(=O)O`, the outcome was “inactive; negative”.

Consider `S=P(N1CC1)(N1CC1)N1CC1`, for which the outcome was “active; positive”. Under `C=C(C)C` stands “inactive; negative”; under `C[CH2][Pb]([CH2]C)([CH2]C)[CH2]C`, “inactive; negative”. Under `O=C(O)C(Cl)(Cl)Cl` stands “inactive; negative”; under `Cc1ccc(C)o1`, “inactive; negative”; under `CCCCOCCCC`, “inactive; negative”. Take `CC(C)Nc1ccc(Nc2ccccc2)cc1`: the outcome was “inactive; negative”.

With `O=CC=Cc1ccco1`, the outcome was “inactive; negative”. `NC(=O)NNC(N)=O`: the outcome is “inactive; negative”. For the compound `COC(=O)C1=C(C)NC(C)=C(C(=O)OC)C1c1ccccc1[N+](=O)[O-]`, the outcome is “inactive; negative”. On to `c1ccc(Nc2ccc3ccccc3c2)cc1`, for which the outcome is “inactive; negative”. In the case of `CCC=O` it was “inactive; negative”; in that of `C=CC1(C)OC(=O)N(c2cc(Cl)cc(Cl)c2)C1=O` (stereo not given), “inactive; negative”; in that of `CCCC(=O)Cl`, “active; weakly positive”.

In the case of `O=C(CCl)c1ccccc1`, the outcome is “inactive; negative”. In the case of `O=C1CCCO1` it was “inactive; negative”; in that of `ClC(Cl)=C(Cl)Cl`, “inactive; negative”.

`CN(C)N=O`: the outcome was “active; positive”. In the case of `CCN(CC)C(=O)c1cccc(C)c1` it was “inactive; negative”.

`NC(=O)c1ncn([C@@H]2O[C@H](CO)[C@@H](O)[C@H]2O)n1`: the outcome is “inactive; negative”. On to `CCCCCCCCCCCCCC(=O)[O-].CCCCCCCCCCCCCC(=O)[O-].[Zn+2]`, for which the outcome is “inactive; negative”. On to `C=CC(=O)OCC(Br)CBr` (stereo not given), for which the outcome is “active; positive”. Under `O=NO` stands “active; positive”; under `CC(=O)C=Cc1ccccc1`, “active; positive”; under `CC(C)S`, “inactive; negative”. In the case of `CC=O` it was “inactive; negative”; in that of `COc1cc(-c2ccc(N=Nc3cc(S(=O)(=O)O)c4ccccc4c3O)c(OC)c2)ccc1N=Nc1cc(S(=O)(=O)O)c2ccccc2c1O`, “inactive; negative”.

For `Oc1cccc2cccnc12`, the outcome is “active; positive”. Turning to `Cc1cc(C)nc(NS(=O)(=O)c2ccc(N)cc2)n1`, the outcome was “inactive; negative”. Under `CNc1ccc(O)cc1` stands “active; positive”; under `Clc1ccccc1`, “inactive; negative”. Under `CCOCCOCC` stands “active; positive”; under `ClCc1cccnc1`, “active; positive”. In the case of `C=C(C)OC(C)=O` it was “inactive; negative”; in that of `c1ccc2c(c1)ccc1ncccc12`, “active; positive”; in that of `Cc1cc(=O)oc2cc(O)ccc12`, “inactive; negative”.

As to `Clc1ccc(C(c2ccc(Cl)cc2)c2ccc(Cl)cc2)cc1`, the outcome was “inactive; negative”. Take `Cc1cc(C)c(S(=O)(=O)O)cc1N=Nc1cc(S(=O)(=O)O)c2ccccc2c1O`: the outcome was “inactive; negative”. Regarding `O=C(O)CN(CCN(CC(=O)O)CC(=O)O)CC(=O)O`, the outcome was “inactive; negative”.

For `CCOC(=O)CC(SP(=S)(OC)OC)C(=O)OCC` (stereo not given), the outcome was “inactive; negative”. Under `CC(Cl)CN(C)C` (stereo not given) stands “active; positive”.

For `CNC(=O)NC`, the outcome was “inactive; negative”. Take `Cc1cccc(Br)c1`: the outcome was “inactive; negative”.

Regarding `C=CC(=O)OCCOCCOC(=O)C=C`, the outcome is “inactive; negative”. Under `CCCCC(C=O)CC` (stereo not given) stands “inactive; negative”; under `CC(C)Br`, “active; positive”; under `CCC=C1OC(=O)c2ccccc21`, “active; positive”. Take `C[C@]12CCC(=O)C=C1CC[C@@H]1[C@@H]2CC[C@]2(C)C(=O)CC[C@@H]12`: the outcome is “inactive; negative”.

Regarding `Oc1cccc(Nc2ccccc2)c1`, the outcome is “inactive; negative”. Take `CCOP(=S)(OCC)SCSC(C)(C)C`: the outcome is “inactive; negative”. For the compound `CC[C@H]1CN2CCc3cc(OC)c(OC)cc3[C@@H]2C[C@@H]1C[C@H]1NCCc2cc(OC)c(OC)cc21`, the outcome was “inactive; negative”. Under `NC(=O)NN=Cc1ccc([N+](=O)[O-])o1` stands “active; positive”; under `CCCC(=O)OCC`, “inactive; negative”. In the case of `CCCN(CCC)CCC` it was “inactive; negative”.

Consider `Nc1ccccn1`, for which the outcome is “inactive; negative”. Under `Oc1ccc(Cl)cc1Cc1ccccc1` stands “inactive; negative”; under `O=C(O)CC(=O)O`, “inactive; negative”; under `Cc1ccc(Cl)cc1`, “inactive; negative”. Consider `O=C1Nc2ccc(S(=O)(=O)O)cc2C1=O`, for which the outcome was “active; positive”. `CC(=O)C(C)O` (stereo not given): the outcome is “inactive; negative”. For the compound `Cc1cccc(OP(=O)(Oc2cccc(C)c2)Oc2cccc(C)c2)c1`, the outcome is “inactive; negative”. Consider `C=Cc1ccccc1Cl`, for which the outcome is “inactive; negative”. In the case of `Cc1ccc2c(c1[N+](=O)[O-])C(=O)c1ccccc1C2=O` it was “active; positive”; in that of `O=c1[nH]cc(F)c(=O)[nH]1`, “inactive; negative”; in that of `COc1ccc2c(c1OC)C(=O)O[C@@H]2[C@H]1c2cc3c(cc2CCN1C)OCO3`, “inactive; negative”.

Take `CCCCCC(=O)O`: the outcome was “inactive; negative”.
